# In patent US12297482B2, “Rapid cell culture test device designed such that fluid films with uniform thickness are formed” (priority 2020, dated 2025):
# How the values were obtained:
# P. aeruginosa ATCC 27853 = assay: Antibiotic susceptibility testing using the cell culture test device (DRAST), time-lapse colony observation; conditions: reference strain, observed until 6 h
# Enterobacter cloacae [1] = assay: Susceptibility testing of blood-sample strain by broth microdilution (BMD); format: cell-based; parameters: key: susceptible (S); intermediate resistance (I); resistance (R); conditions: BMD testing method, strain from blood sample
# Description: The tests were conducted on various drugs that are currently used in testing organizations. […] Accordingly, these test results are all classified as minor errors of the first step judgement.
# Enterobacter cloacae [2] = assay: Susceptibility testing of blood-sample strain using the cell culture test device (DRAST); format: cell-based; parameters: key: susceptible (S); intermediate resistance (I); resistance (R); conditions: strain from blood sample
# Description: (§1) The liquid medium usually […].
# Enterococcus faecium [3] = assay: Susceptibility testing of blood-sample strain by broth microdilution (BMD); format: cell-based; parameters: key: susceptible (S); intermediate resistance (I); resistance (R); conditions: BMD testing method, strain from blood sample
# Description: The tests were conducted on various drugs that are currently used in testing organizations. […] Staphylococcus aureus, Staphylococcus epidermidis, Enterococcus faecalis, and Enterococcus faecium were detected in four blood samples. The test results on S. aureus and S. epidermidis in the BMD testing method were in good agreement with those in the testing method using the cell culture test device (DRAST) of the present disclosure.
# Accordingly, these test results are all classified as minor errors of the first step judgement. […] The concentrations shown in FIG. 16 are expressed in μg/mL.
# Enterococcus faecium [4] = assay: Susceptibility testing of blood-sample strain using the cell culture test device (DRAST); format: cell-based; parameters: key: susceptible (S); intermediate resistance (I); resistance (R); conditions: strain from blood sample
# Description: as §1
# For example, the biological agent may be a culture of blood collected from a human infected with bacteria, i.e. a culture of blood positive for bacterial infection. In this case, a liquid medium stimulating the division of only the bacterial cells can be used to distinguish the bacterial cells from the blood cells based on their different sizes. The biological agent positive for bacterial infection may be collected and diluted with the gelling agent-containing liquid medium. Thus, there is no need to separate the bacteria from the blood sample, shortening the test time.
# E. faecalis ATCC 29212 = assay: Antibiotic susceptibility testing using the cell culture test device (DRAST), time-lapse colony observation; conditions: reference strain, observed until 6 h
# S. aureus ATCC 29213 = assay: as above; conditions: reference strain, observed until 6 h
molecule,measurement,setting,value
C[C@H]1[C@H](NC(=O)/C(=N\OC(C)(C)C(=O)O)c2csc(N)n2)C(=O)N1S(=O)(=O)O [aztreonam],MIC of the antibiotic against P. aeruginosa ATCC 27853,P. aeruginosa ATCC 27853,8.0 µg/mL
C[C@@H](O)[C@H]1C(=O)N2C(C(=O)O)=C(S[C@@H]3CN[C@H](C(=O)Nc4cccc(C(=O)O)c4)C3)[C@H](C)[C@H]12 [ertapenem],susceptibility category (S/I/R) of E. cloacae,Enterobacter cloacae [1],R
same,susceptibility category (S/I/R) of E. cloacae,Enterobacter cloacae [2],I
CC(=O)NC[C@H]1CN(c2ccc(N3CCOCC3)c(F)c2)C(=O)O1 [linezolid],susceptibility category (S/I/R) of E. faecium,Enterococcus faecium [3],R
same,susceptibility category (S/I/R) of E. faecium,Enterococcus faecium [4],I
gentamicin,MIC of the antibiotic against E. faecalis ATCC 29212,E. faecalis ATCC 29212,8.0 µg/mL
penicillin,MIC of the antibiotic against S. aureus ATCC 29213,S. aureus ATCC 29213,1.0 µg/mL
